Source: patent US5780604A, “11,12-cyclic phosphite or phosphate derivatives of erythromycin and related macrolides” (Abbott Laboratories, priority 1997, dated 1998)
In brackets after ≈: the same amount, converted by molar mass.

Tests used:
[1] = test system: gram-positive bacteria, mycoplasmas; conditions: background statement, U.S. Pat. No. 4,331,803; cited from earlier work
[2] = background statement; cited from earlier work
Gram-negative bacteria = conditions: background statement; cited from earlier work
[3] = test system: Haemophilis Influenzae DILL AMP R; assay type: cell-based; conditions: BHI agar, 35°-37° C., 20 to 24 hours; unit assumed
Experimental: (§1) Representative compounds of the present invention were assayed in vitro for antibacterial activity as follows: Twelve petri dishes containing successive aqueous dilutions of the test compound mixed with 10 mL of sterilized Brain Heart Infusion (BHI) agar (Difco 0418-01-5) were prepared. Each plate was inoculated with 1:100 (or 1:10 for slow-growing strains, such as Micrococcus and Streptococcus) dilutions of up to 32 different microorganisms, using a Steers replicator block. […] In addition, a control plate, using BHI agar containing no test compound, was prepared and incubated at the beginning and end of each test.
(§2) An additional plate containing a compound having known susceptibility patterns for the organisms being tested and belonging to the same antibiotic class as the test compound was also prepared and incubated as a further control, as well as to provide test-to-test comparability.
(§3) After incubation, each plate was visually inspected. The minimum inhibitory concentration (MIC) was defined as the lowest concentration of drug yielding no growth, a slight haze, or sparsely isolated colonies on the inoculum spot as compared to the growth control.

Escherichia coli JUHL = experiment: In vitro antibacterial activity (MIC), agar dilution; assay type: cell-based; conditions: unit assumed
Experimental: as §1, §2, §3

[4] = test system: Streptococcus bovis A-5169; assay type: cell-based; conditions: BHI agar, 35°-37° C., 20 to 24 hours; unit assumed
Experimental: as §1, §2, §3

[5] = test system: Staphylococcus aureus NCTC10649M; assay type: cell-based; conditions: BHI agar, 35°-37° C., 20 to 24 hours; unit assumed
Experimental: as §1, §2, §3

[6] = test system: Micrococcus luteus ATCC 9341; assay type: cell-based; conditions: BHI agar, 35°-37° C., 20 to 24 hours; unit assumed
Experimental: as §1, §2, §3

[7] = test system: Streptococcus pyogenes EES61; assay type: cell-based; conditions: BHI agar, 35°-37° C., 20 to 24 hours; unit assumed
Experimental: as §1, §2, §3

[8] = test system: Staphylococcus aureus ATCC 6538P; assay type: cell-based; conditions: BHI agar, 35°-37° C., 20 to 24 hours; unit assumed
Experimental: as §1, §2, §3

[9] = test system: Staphylococcus aureus CMX 553; assay type: cell-based; conditions: BHI agar, 35°-37° C., 20 to 24 hours; unit assumed
Experimental: as §1, §2, §3

[10] = test system: Staphylococcus aureus CMX 642A; assay type: cell-based; conditions: BHI agar, 35°-37° C., 20 to 24 hours; unit assumed
Experimental: as §1, §2, §3

[11] = test system: Enterococcus faecium ATCC 8043; assay type: cell-based; conditions: BHI agar, 35°-37° C., 20 to 24 hours; unit assumed
Experimental: as §1, §2, §3

[12] = test system: Staphylococcus epidermidis 3519; assay type: cell-based; conditions: BHI agar, 35°-37° C., 20 to 24 hours; unit assumed
Experimental: as §1, §2, §3

[13] = test system: Streptococcus pyogenes PIU 2548; assay type: cell-based; conditions: BHI agar, 35°-37° C., 20 to 24 hours; unit assumed
Experimental: as §1, §2, §3

[14] = test system: Streptococcus agalactiae CMX 508; assay type: cell-based; conditions: BHI agar, 35°-37° C., 20 to 24 hours; unit assumed
Experimental: as §1, §2, §3

[15] = test system: Staphylococcus aureus A5177; assay type: cell-based; conditions: BHI agar, 35°-37° C., 20 to 24 hours; unit assumed
Experimental: as §1, §2, §3

[16] = test system: Micrococcus luteus ATCC 4698; assay type: cell-based; conditions: BHI agar, 35°-37° C., 20 to 24 hours; unit assumed
Experimental: as §1, §2, §3

[17] = test system: Staphylococcus aureus A-5278; experiment: In vitro antibacterial activity (MIC), agar dilution; assay type: cell-based; conditions: BHI agar, 35°-37° C., 20 to 24 hours; unit assumed
Experimental: as §1, §2, §3

[18] = test system: Nocardia Asteroides ATCC9970; experiment: as above; assay type: cell-based; conditions: BHI agar, 35°-37° C., 20 to 24 hours; unit assumed
Experimental: as §1, §2, §3

[19] = test system: Streptococcus Pheumoniae 5649; experiment: as above; assay type: cell-based; conditions: BHI agar, 35°-37° C., 20 to 24 hours; unit assumed
Experimental: as §1, §2, §3

Escherichia coli SS = experiment: as above; assay type: cell-based; conditions: BHI agar, 35°-37° C., 20 to 24 hours; unit assumed
Experimental: as §1, §2, §3

[20] = test system: Streptococcus Pheumoniae GYR 1171; experiment: as above; assay type: cell-based; conditions: BHI agar, 35°-37° C., 20 to 24 hours; unit assumed
Experimental: as §1, §2, §3

Candida albicans CCH 442 = experiment: as above; assay type: cell-based; conditions: BHI agar, 35°-37° C., 20 to 24 hours; unit assumed
Experimental: as §1, §2, §3

[21] = test system: Staphylococcus aureus 1775; experiment: as above; assay type: cell-based; conditions: BHI agar, 35°-37° C., 20 to 24 hours; unit assumed
Experimental: as §1, §2, §3

[22] = test system: Mycobacterium smegmatis ATCC 114; experiment: as above; assay type: cell-based; conditions: BHI agar, 35°-37° C., 20 to 24 hours; unit assumed
Experimental: as §1, §2, §3

Escherichia coli DC-2 = experiment: as above; assay type: cell-based; conditions: BHI agar, 35°-37° C., 20 to 24 hours; unit assumed
Experimental: as §1, §2, §3

[23] = test system: Streptococcus pyogenes 930; experiment: as above; assay type: cell-based; conditions: BHI agar, 35°-37° C., 20 to 24 hours; unit assumed
Experimental: as §1, §2, §3

[24] = BHI agar, 35°-37° C., 20 to 24 hours

Row | Compound | activity against Gram-negative bacteria (Gram-negative bacteria) | MIC [3] | MIC [4] | MIC [5] | MIC [6] | MIC [7] | MIC [8] | MIC [9] | MIC [10] | MIC [11] | MIC [12] | MIC [13] | MIC [14] | MIC [15] | MIC [16] | MIC [17] | MIC [18] | MIC [19] | MIC (Escherichia coli SS) | MIC [20] | further results
1 | CC[C@H]1OC(=O)[C@H](C)[C@@H](O[C@H]2C[C@@](C)(OC)[C@@H](O)[C@H](C)O2)[C@H](C)[C@@H](O[C@@H]2O[C@H](C)C[C@H](N(C)C)[C@H]2O)[C@](C)(OC)C[C@@H](C)C(=O)[C@H](C)[C@@H](O)[C@]1(C)O [6-O-methyl erythromycin A] | only weak antimicrobial activity |  |  |  |  |  |  |  |  |  |  |  |  |  |  |  |  |  |  |  | antibacterial activity against many gram-positive bacteria, mycoplasmas, etc. [1]: desirable antibacterial activity; acid stability [2]: poor acid stability
2 | CC[C@H]1OC(=O)[C@H](C)[C@@H](O[C@H]2C[C@@](C)(OC)[C@@H](O)[C@H](C)O2)[C@H](C)[C@@H](O[C@@H]2O[C@H](C)C[C@H](N(C)C)[C@H]2O)[C@](C)(O)C[C@@H](C)C(=O)[C@H](C)[C@@H](O)[C@]1(C)O [Ery. A, Erythromycin A] | only weak activity | 4 µg/mL (≈ 5.45 µM) |  |  |  |  |  |  |  |  |  |  |  |  |  |  |  |  |  |  | MIC (Escherichia coli JUHL): > 100 µg/mL
3 | CC[C@H]1OC(=O)[C@H](C)C(=O)[C@H](C)[C@@H](O[C@@H]2O[C@H](C)C[C@H](N(C)C)[C@H]2O)[C@](C)(OC)C[C@@H](C)C(=O)[C@H](C)[C@H]2OP(OC)O[C@@]21C (some centres unmarked) [Example 3] |  | > 128 µg/mL | 12.5 µg/mL (≈ 19.3 µM) | 25 µg/mL (≈ 38.6 µM) | 25 µg/mL (≈ 38.6 µM) | 12.5 µg/mL (≈ 19.3 µM) | 25 µg/mL (≈ 38.6 µM) | 50 µg/mL (≈ 77.2 µM) | 25 µg/mL (≈ 38.6 µM) | 25 µg/mL (≈ 38.6 µM) | 25 µg/mL (≈ 38.6 µM) | 12.5 µg/mL (≈ 19.3 µM) | 12.5 µg/mL (≈ 19.3 µM) | 25 µg/mL (≈ 38.6 µM) | 25 µg/mL (≈ 38.6 µM) | > 100 µg/mL | 12.5 µg/mL (≈ 19.3 µM) | 16 µg/mL (≈ 24.7 µM) | 50 µg/mL (≈ 77.2 µM) | 8 µg/mL (≈ 12.4 µM) | MIC (Candida albicans CCH 442): > 100 µg/mL; MIC (Escherichia coli JUHL; [24]): > 100 µg/mL; MIC [21]: > 100 µg/mL; MIC [22]: 100 µg/mL (≈ 154 µM); MIC (Escherichia coli DC-2): > 100 µg/mL; MIC [23]: > 100 µg/mL
4 | CCOP1O[C@@H]2[C@@H](C)C(=O)[C@H](C)C[C@@](C)(OC)[C@H](O[C@@H]3O[C@H](C)C[C@H](N(C)C)[C@H]3O)[C@@H](C)C(=O)[C@@H](C)C(=O)O[C@H](CC)[C@@]2(C)O1 (some centres unmarked) [Example 5] |  | > 128 µg/mL | 12.5 µg/mL (≈ 18.9 µM) | 25 µg/mL (≈ 37.8 µM) | 25 µg/mL (≈ 37.8 µM) | 12.5 µg/mL (≈ 18.9 µM) | 25 µg/mL (≈ 37.8 µM) | 50 µg/mL (≈ 75.6 µM) | 50 µg/mL (≈ 75.6 µM) | 25 µg/mL (≈ 37.8 µM) | 25 µg/mL (≈ 37.8 µM) | 12.5 µg/mL (≈ 18.9 µM) | 12.5 µg/mL (≈ 18.9 µM) | 25 µg/mL (≈ 37.8 µM) | 50 µg/mL (≈ 75.6 µM) | > 100 µg/mL | 12.5 µg/mL (≈ 18.9 µM) | 16 µg/mL (≈ 24.2 µM) | 50 µg/mL (≈ 75.6 µM) | 4 µg/mL (≈ 6.04 µM) | MIC (Candida albicans CCH 442): > 100 µg/mL; MIC (Escherichia coli JUHL; [24]): > 100 µg/mL; MIC [21]: > 100 µg/mL; MIC [22]: 100 µg/mL (≈ 151 µM); MIC (Escherichia coli DC-2): > 100 µg/mL; MIC [23]: > 100 µg/mL
